Legend:
[1] = In vitro cytotoxicity assay (MTT cell viability) in HepG2 cells; type: cell-based, human; conditions: human
In short: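 Parental HepG2 cells in EMEM + 10% FBS were exposed to compounds (8 half-log dilutions, 30 μM to 1.0 nM) for 7 days at 37 °C, 5% CO2. MTT was then added for 3-4 h, formazan dissolved in DMSO and absorbance read at 492 nm; CC50 came from 4-parameter fits against vehicle controls.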

[2] = system: HBV replication in HepAD38 cells; assay: Anti-HBV replication assay in HepAD38 cells (QPCR of extracellular HBV DNA); type: cell-based, HBV (genotype D, serotype ayw); conditions: Hepatitis B virus, 168 h, 7 days incubation, extracellular HBV DNA by QPCR, read-out: Anti-HBV EC50
In short: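 Stably transfected HepG2-derived HepAD38 cells express HBV (genotype D, ayw) once tetracycline is withdrawn. Compounds act for 7 days, after which secreted HBV DNA is quantified by QPCR relative to DMSO-treated wells.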

Row | Structure (SMILES) | CC50 at 7 days [1] | EC50 [2]
1 | Cc1cc(NC(=O)c2c(C)c(C(=O)C(=O)NCCc3ccsc3)n(C)c2C)ccc1F [Example 646, N-(4-fluoro-3-methylphenyl)-1,2,4-trimethyl-5-(2-oxo-2-((2-(thiophen-3-yl)ethyl)amino)acetyl)-1H-pyrrole-3-carboxamide] | 5000 to 30000 nM | < 50 nM
2 | Cc1cc(NC(=O)c2c(C)c(C(=O)C(=O)N[C@H]3CCC[C@H]3O)n3c2CCCC3)ccc1F [Example 440, N-(4-fluoro-3-methylphenyl)-3-(2-(((1S,2R)-2-hydroxycyclopentyl)amino)-2-oxoacetyl)-2-methyl-5,6,7,8-tetrahydroindolizine-1-carboxamide] | 5000 to 30000 nM | 50 to 499 nM
3 | Cc1cc(NC(=O)c2cc(C(=O)C(=O)NC3(C)CC(F)(F)C3)n3c2CCCC3)ccc1F [Example 404, 3-(2-((3,3-difluoro-1-methylcyclobutyl)amino)-2-oxoacetyl)-N-(4-fluoro-3-methylphenyl)-5,6,7,8-tetrahydroindolizine-1-carboxamide] | > 30000 nM | 50 to 499 nM
4 | Cc1cc(NC(=O)c2c(C)c(C(=O)C(=O)N[C@@]3(C)CC[C@H](O)C3)n(C)c2C)ccc1F [Example 723, N-(4-fluoro-3-methylphenyl)-5-(2-(((1 S,3S)-3-hydroxy-1-methylcyclopentyl)amino)-2-oxoacetyl)-1,2,4-trimethyl-1H-pyrrole-3-carboxamide] | > 30000 nM | < 50 nM
5 | Cc1cc(NC(=O)c2c(C)c(C(=O)C(=O)NC3C4CC5CC(C4)CC3C5)n(C)c2C)ccc1F (stereo not shown) [Example 17, 5-(2-(((1r,3r)-adamantan-2-yl)amino)-2-oxoacetyl)-N-(4-fluoro-3-methylphenyl)-1,2,4-trimethyl-1H-pyrrole-3-carboxamide] | 500 to 4990 nM | < 50 nM
6 | Cc1cc(NC(=O)c2c(C)c(C(=O)C(=O)N[C@@H](CO)C(N)=O)n(C)c2C)ccc1F [Example 41, (S)-5-(2-((1-amino-3-hydroxy-1-oxopropan-2-yl)amino)-2-oxoacetyl)-N-(4-fluoro-3-methylphenyl)-1,2,4-trimethyl-1H-pyrrole-3-carboxamide] | 500 to 4990 nM | < 50 nM
7 | Cc1cc(NC(=O)c2c(C)c(C(=O)C(=O)N[C@@H](C(=O)O)C(C)(C)C)n(C)c2C)ccc1F [Example 31, (R)-2-(2-(4-((4-fluoro-3-methylphenyl)carbamoyl)-1,3,5-trimethyl-1H-pyrrol-2-yl)-2-oxoacetamido)-3,3-dimethylbutanoic acid] | > 30000 nM | 50 to 499 nM
8 | Cc1cc(NC(=O)c2c(C)c(C(=O)C(=O)N[C@@H]3CCOC[C@H]3O)n(CCF)c2C)ccc1F [Example 196, N-(4-fluoro-3-methylphenyl)-1-(2-fluoroethyl)-5-(2-(((3S,4R)-3-hydroxytetrahydro-2H-pyran-4-yl)amino)-2-oxoacetyl)-2,4-dimethyl-1H-pyrrole-3-carboxamide] | > 30000 nM | 50 to 499 nM
9 | O=C(NC1(CO)CCC1)C(=O)c1c(Cl)c(C(=O)Nc2ccc(F)c(F)c2)c2n1CCC2 [Example 558, 6-chloro-N-(3,4-difluorophenyl)-5-(2-((1-(hydroxymethyl)cyclobutyl)amino)-2-oxoacetyl)-2,3-dihydro-1H-pyrrolizine-7-carboxamide] | > 30000 nM | < 50 nM
10 | Cc1cc(NC(=O)c2c(C)c(C(=O)C(=O)NC3CCN(c4ccccn4)CC3)n(C)c2C)ccc1F [Example 657, N-(44-fluoro-3-methylphenyl)-1,2,4-trimethyl-5-(2-oxo-2-((1-(pyridin-2-yl)piperidin-4-yl)amino)acetyl)-1H-pyrrole-3-carboxamide] | 5000 to 30000 nM | < 50 nM
11 | Cc1cc(NC(=O)c2c(C)c(C(=O)C(=O)NC3(CO)CC(F)(F)C3)n(CCF)c2C)ccc1F [Example 179, 5-(2-((3,3-difluoro-1-(hydroxymethyl)cyclobutyl)amino)-2-oxoacetyl)-N-(4-fluoro-33-methylphenyl)-1-(2-fluoroethyl)-2,4-dimethyl-1H-pyrrole-3-carboxamide] | 5000 to 30000 nM | < 50 nM
12 | Cc1cc(NC(=O)c2c(C)c(C(=O)C(=O)NCCc3cccs3)n(C)c2C)ccc1F [Example 347, N-(4-fluoro-3-methylphenyl)-1,2,4-trimethyl-5-(2-oxo-2-((2-(thiophen-2-yl)ethyl)amino)acetyl)-1H-pyrrole-3-carboxamide] | > 30000 nM | < 50 nM
13 | O=C(NC1(CO)CCC1)C(=O)c1c(Cl)c(C(=O)Nc2ccc(F)c(F)c2)c2n1CCOC2 [Example 584, 7-chloro-N-(3,4-difluorophenyl)-6-(2-((1-(hydroxymethyl)cyclobutyl)amino)-2-oxoacetyl)-3,4-dihydro-1H-pyrrolo[2,1-c][1,4]oxazine-8-carboxamide] | 5000 to 30000 nM | < 50 nM
14 | Cc1c(C(=O)Nc2ccc(F)c(F)c2)c(C)n(C)c1C(=O)C(=O)NC1(C(N)=O)CCCC1 [Example 147, 5-(2-((1-carbamoylcyclopentyl)amino)-2-oxoacetyl)-N-(3,4-difluorophenyl)-1,2,4-trimethyl-1H-pyrrole-3-carboxamide] | > 30000 nM | < 50 nM
15 | Cc1cc(NC(=O)c2c(C)c(C(=O)C(=O)N[C@H](C(N)=O)C(C)(C)C)n(C)c2C)ccc1F [Example 39, (S)-5-(2-((1-amino-3,3-dimethyl-1-oxobutan-2-yl)amino)-2-oxoacetyl)-N-(4-fluoro-3-methylphenyl)-1,2,4-trimethyl-1H-pyrrole-3-carboxamide] | > 30000 nM | 500 to 1000 nM
16 | Cc1c(C(=O)Nc2ccc(F)nc2)c(C)n(C)c1C(=O)C(=O)NC(C)C(F)(F)F (stereo not shown) [Example 119, N-(6-fluoropyridin-3-yl)-1,2,4-trimethyl-5-(2-oxo-2-((1,1,1-trifluoropropan-2-yl)amino)acetyl)-1H-pyrrole-3-carboxamide] | > 30000 nM | < 50 nM
17 | Cc1cc(NC(=O)c2c(C)c(C(=O)C(=O)NC3(C)CCN(c4ncccn4)CC3)n(C)c2C)ccc1F [Example 691, N-(4-fluoro-3-methylphenyl)-1,2,4-trimethyl-5-(2-((4-methyl-1-(pyrimidin-2-yl)piperidin-4-yl)amino)-2-oxoacetyl)-1H-pyrrole-3-carboxamide] | > 30000 nM | < 50 nM
18 | Cc1cc(NC(=O)c2c(C)c(C(=O)C(=O)NC3(C(F)(F)F)CCOC3)n(C)c2C)ccc1F (stereo not shown) [Example 278, N-(4-fluoro-3-methylphenyl)-1,2,4-trimethyl-5-(2-oxo2-((3-(trifluoromethyl)tetrahydrofuran-3-yl)amino)acetyl)-1H-pyrrole-3-carboxamide] | > 30000 nM | < 50 nM
19 | Cc1cc(NC(=O)c2c(Cl)c(C(=O)C(=O)NC(C)(C)C)n(C)c2C)ccc1F [Example 363, 5-(2-(tert-butylamino)-2-oxoacetyl)-4-chloro-N-(4-fluoro-3-methylphenyl)-1,2-dimethyl-1H-pyrrole-3-carboxamide] | > 30000 nM | < 50 nM
20 | Cc1c(C(=O)Nc2ccnc(F)c2)c(C)n(C)c1C(=O)C(=O)N[C@H]1CCC[C@@H]1O [Example 134, N-(2-fluoropyridin-4-yl)-5-(2-(((1S,2S)-2-hydroxycyclopentyl)amino)-2-oxoacetyl)-1,2,4-trimethyl-1H-pyrrole-3-carboxamide] | > 30000 nM | 50 to 499 nM
21 | Cc1cc(NC(=O)c2c(C)c(C(=O)C(=O)N[C@H]3CC[C@@H](O)CC3)n(C)c2C)ccc1F [Example 137, N-(4-fluoro-3-methylphenyl)-5-(2-(((1s,4s)-4-hydroxycyclohexyl)amino)-2-oxoacetyl)-1,2,4-trimethyl-1H-pyrrole-3-carboxamide] | > 30000 nM | < 50 nM
22 | Cc1cc(NC(=O)c2c(C)c(C(=O)C(=O)N[C@H]3COC[C@@H]3O)n(C)c2C)ccc1F [Example 128, N-(4-fluoro-3-methylphenyl)-5-(2-(((3S,4R)-4-hydroxytetrahydrofuran-3-yl)amino)-2-oxoacetyl)-1,2,4-trimethyl-1H-pyrrole-3-carboxamide] | > 30000 nM | < 50 nM
23 | Cc1cc(NC(=O)c2cc(C(=O)C(=O)NC3(CO)CC(F)(F)C3)n3c2CCCC3)ccc1F [Example 432, 3-(2-((3,3-difluoro-1-(hydroxymethyl)cyclobutyl)amino)-2-oxoacetyl)-N-(4-fluoro-3-methylphenyl)-5,6,7,8-tetrahydroindolizine-1-carboxamide] | > 30000 nM | 50 to 499 nM
24 | Cc1cc(NC(=O)C(=O)c2c(C)c(C(=O)Nc3ccc(F)c(C)c3)c(C)n2C)on1 [Example 304, N-(4-fluoro-3-methylphenyl)-1,2,4-trimethyl-5-(2-((3-methylisoxazol-5-yl)amino)-2-oxoacetyl)-1H-pyrrole-3-carboxamide] | 5000 to 30000 nM | < 50 nM
25 | Cc1cc(NC(=O)c2c(C)c(C(=O)C(=O)NC(C)C(F)(F)F)n(C)c2C)ccc1F (stereo not shown) [Example 10, N-(4-fluoro-3-methylphenyl)-1,2,4-trimethyl-5-(2-oxo-2-((1,1,1-trifluoropropan-2-yl)amino)acetyl)-1H-pyrrole-3-carboxamide] | 5000 to 30000 nM | < 50 nM
26 | Cc1cc(NC(=O)c2cc(C(=O)C(=O)NC(C)(C)C(F)(F)F)n3c2CCCC3)ccc1F [Example 409, N-(4-fluoro-3-methylphenyl)-3-(2-oxo-2-((1,1,1-trifluoro-2-methylpropan-2-yl)amino)acetyl)-5,6,7,8-tetrahydroindolizine-1-carboxamide] | > 30000 nM | 50 to 499 nM

— patent publication US20190375708A1 (VenatoRx Pharmaceuticals, Inc., priority 2018, published 2019)
